According to US20240360126A1, “PYRAZOLO[3,4-B]PYRIDINE COMPOUNDS FOR THE TREATMENT OF AUTOIMMUNE DISEASE” (Hoffmann-La Roche Inc., priority 2021, published 2024):

Biological target: T1, TLR9 (Homo sapiens, UniProt Q9NR96)
T1 sequence (Q9NR96 26-1032): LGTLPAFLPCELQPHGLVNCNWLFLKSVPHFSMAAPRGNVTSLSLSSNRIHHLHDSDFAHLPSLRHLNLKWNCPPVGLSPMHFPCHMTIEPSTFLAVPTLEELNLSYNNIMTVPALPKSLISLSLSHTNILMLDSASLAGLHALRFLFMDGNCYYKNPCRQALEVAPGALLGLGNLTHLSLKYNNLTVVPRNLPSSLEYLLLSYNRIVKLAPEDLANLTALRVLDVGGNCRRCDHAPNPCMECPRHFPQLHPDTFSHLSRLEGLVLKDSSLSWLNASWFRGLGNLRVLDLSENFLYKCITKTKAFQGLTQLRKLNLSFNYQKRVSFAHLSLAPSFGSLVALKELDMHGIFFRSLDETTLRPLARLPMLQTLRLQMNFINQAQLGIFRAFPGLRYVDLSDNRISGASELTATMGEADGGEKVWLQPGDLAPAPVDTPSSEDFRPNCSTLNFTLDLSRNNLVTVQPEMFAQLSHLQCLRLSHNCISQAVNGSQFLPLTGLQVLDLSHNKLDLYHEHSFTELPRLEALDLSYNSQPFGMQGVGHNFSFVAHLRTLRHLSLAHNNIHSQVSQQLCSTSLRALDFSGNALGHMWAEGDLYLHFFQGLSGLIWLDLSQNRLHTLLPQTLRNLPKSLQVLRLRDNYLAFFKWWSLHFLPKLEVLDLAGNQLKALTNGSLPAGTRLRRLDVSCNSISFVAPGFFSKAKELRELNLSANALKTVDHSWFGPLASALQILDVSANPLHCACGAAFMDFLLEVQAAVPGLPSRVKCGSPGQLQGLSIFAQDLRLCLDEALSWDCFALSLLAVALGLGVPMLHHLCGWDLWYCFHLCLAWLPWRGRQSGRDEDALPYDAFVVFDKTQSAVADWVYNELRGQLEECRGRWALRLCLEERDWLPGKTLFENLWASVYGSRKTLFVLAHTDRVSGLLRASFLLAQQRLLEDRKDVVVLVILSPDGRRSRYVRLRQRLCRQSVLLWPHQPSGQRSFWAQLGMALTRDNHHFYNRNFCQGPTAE
Assay: HEK293-Blue-hTLR-9 cells assay
Format: cell-based
Parameters: host or cells: HEK293 (HEK-Blue hTLR9)
Conditions: HEK293-Blue-hTLR9 cells, ODN2006 stimulation, 20 hrs; read-out: HEK/hTLR9 IC50
Source text: A stable HEK293-Blue-hTLR-9 cell line was purchased from InvivoGen (Cat. #: hkb-htlr9, San Diego, California, USA). These cells were originally designed for studying the stimulation of human TLR9 by monitoring the activation of NF-κB. A SEAP (secreted embryonic alkaline phosphatase) reporter gene was placed under the control of the IFN-β minimal promoter fused to five NF-κB and AP-1-binding sites. The SEAP was induced by activating NF-κB and AP-1 via stimulating HEK-Blue hTLR9 cells with TLR9 ligands. Therefore the reporter expression was declined by TLR9 antagonist under the stimulation of a ligand, such as ODN2006 (Cat. #: tlrl-2006-1, Invivogen, San Diego, California, USA), for incubation of 20 hrs. The cell culture supernatant SEAP reporter activity was determined using QiANTI-Blue™ kit (Cat. #: rep-qbl, Invivogen, San Diego, California, USA) at a wavelength of 640 nm, a detection medium that turns purple or blue in the presence of alkaline phosphatase.
HEK293-Blue-hTLR9 cells were incubated at a density of 250,000-450,000 cells/mL in a volume of 170 μL in a 96-well plate in Dulbecco's Modified Eagle's medium (DMEM) containing 4.5 g/L glucose, 50 U/mL penicillin, […], […], 10% (v/v) heat-inactivated fetal bovine serum with addition of 20 μL test compound in a serial dilution in the presence of final DMSO at 1% and 10 μL of 20 μM ODN2006 in above DMEM, perform incubation under 37° C. in a C02 incubator for 20 hrs. Then 20 μL of the supernatant from each well was incubated with 180 μl. Quanti-blue substrate solution at 37° C. for 2 h and the absorbance was read at 620˜655 nm using a spectrophotometer. The signaling pathway that TLR9 activation leads to downstream NF-κB activation has been widely accepted, and therefore similar reporter assay was modified for evaluating TLR9 antagonist.

IC50 | Compound
192 nM | Cc1cc(N2CC[C@H](c3ccc(N4CC5(CNCCO5)C4)cn3)[C@@H](C)C2)c2cnn(C)c2n1 [Example 38, 2-[6-[(3R,4S)-1-(1,6-dimethylpyrazolo[3,4-b]pyridin-4-yl)-3-methyl-4-piperidyl]-3-pyridyl]-5-oxa-2,8-diazaspiro[3.5]nonane]
220 nM | Cc1cc(N2CCC(c3cnc(N4CCNCC4)cc3C)[C@H](C)C2)c2cnn(C)c2n1 (single isomer, unassigned) [Example 20, 1,6-dimethyl-4-[cis-3-methyl-4-(4-methyl-6-piperazin-1-yl-3-pyridyl)-1-piperidyl]pyrazolo[3,4-b]pyridine]
170 nM | CO[C@@H]1CN(c2ccc([C@H]3CCN(c4cc(C)nc5c4cnn5C)C[C@@H]3C)nc2)C[C@H]1N [Example 36, (3R,4R)-1-[6-[(3R,4S)-1-(1,6-dimethylpyrazolo[3,4-b]pyridin-4-yl)-3-methyl-4-piperidyl]-3-pyridyl]-4-methoxy-pyrrolidin-3-amine]
203 nM | Cc1cc(N2CC[C@H](c3ccc(N4CC(C)(N)C4)cn3)[C@@H](C)C2)c2cnn(C)c2n1 [Example 43, 1-[6-[(3R,4S)-1-(1,6-dimethylpyrazolo[3,4-b]pyridin-4-yl)-3-methyl-4-piperidyl]-3-pyridyl]-3-methyl-azetidin-3-amine]
173 nM | Cc1cc(N2CC[C@H](c3ccc(N4CCOC[C@@H](N)C4)cn3)[C@@H](C)C2)c2cnn(C)c2n1 [Example 40, (6S)-4-[6-[(3R,4S)-1-(1,6-dimethylpyrazolo[3,4-b]pyridin-4-yl)-3-methyl-4-piperidyl]-3-pyridyl]-1,4-oxazepan-6-amine]
368 nM | Cc1cc(N2CCC(c3ncc(N4CCNCC4)nc3C)[C@H](C)C2)c2cnn(C)c2n1 (single isomer, unassigned) [Example 23, 1,6-dimethyl-4-[trans-3-methyl-4-(3-methyl-5-piperazin-1-yl-pyrazin-2-yl)-1-piperidyl]pyrazolo[3,4-b]pyridine]
184 nM | Cc1cc(N2CC[C@@H](c3ncc(N4CC5(CNCCO5)C4)cc3C)[C@H](C)C2)c2cnn(C)c2n1 [Example 27, 2-[6-[(3S,4R)-1-(1,6-dimethylpyrazolo[3,4-b]pyridin-4-yl)-3-methyl-4-piperidyl]-5-methyl-3-pyridyl]-5-oxa-2,8-diazaspiro[3.5]nonane]
315 nM | Cc1cc(N2CCC(c3ncc(N4CCNCC4)nc3C)[C@H](C)C2)c2cnn(C)c2n1 (single isomer, unassigned) [Example 22, 1,6-dimethyl-4-[cis-3-methyl-4-(3-methyl-5-piperazin-1-yl-pyrazin-2-yl)-1-piperidyl]pyrazolo[3,4-b]pyridine]
158 nM | Cc1cc(N2CC[C@H](c3ccc(N4CCNCC4)cn3)[C@@H](C)C2)c2cnn(C)c2n1 [Example 35, 1,6-dimethyl-4-[(3R,4S)-3-methyl-4-(5-piperazin-1-yl-2-pyridyl)-1-piperidyl]pyrazolo[3,4-b]pyridine]
332 nM | COC[C@H]1CN(c2ccc([C@H]3CCN(c4cc(C)nc5c4cnn5C)C[C@@H]3C)nc2)CCN1 [Example 37, 4-[(3R,4S)-4-[5-[(3R)-3-(methoxymethyl)piperazin-1-yl]-2-pyridyl]-3-methyl-1-piperidyl]-1,6-dimethyl-pyrazolo[3,4-b]pyridine]
238 nM | COC[C@H]1CN(c2cnc([C@@H]3CCN(c4cc(C)nc5c4cnn5C)C[C@H]3C)c(C)c2)CCN1 [Example 29, 4-[(3S,4R)-4-[5-[(3R)-3-(methoxymethyl)piperazin-1-yl]-3-methyl-2-pyridyl]-3-methyl-1-piperidyl]-1,6-dimethyl-pyrazolo[3,4-b]pyridine]
73 nM | CO[C@H]1CN(c2cnc(C3CCN(c4cc(C)nc5c4cnn5C)CC3)c(C)c2)CC[C@@H]1N [Example 17, (3S,4S)-1-[6-[1-(1,6-dimethylpyrazolo[3,4-b]pyridin-4-yl)-4-piperidyl]-5-methyl-3-pyridyl]-3-methoxy-piperidin-4-amine]
231 nM | Cc1cc(N2CC[C@H](c3ccc(N4CC[C@@H](N)[C@H](F)C4)cn3)[C@@H](C)C2)c2cnn(C)c2n1 [Example 41, (3R,4R)-1-[6-[(3R,4S)-1-(1,6-dimethylpyrazolo[3,4-b]pyridin-4-yl)-3-methyl-4-piperidyl]-3-pyridyl]-3-fluoro-piperidin-4-amine]

The next lines start with the compound.

Compound | IC50
Cc1cc(N2CCC(c3ncc(N4CCNCC4)cn3)CC2)c2cnn(C)c2n1 [Example 4, 1,6-dimethyl-4-[4-(5-piperazin-1-ylpyrimidin-2-yl)-1-piperidyl]pyrazolo[3,4-b]pyridine] | 379 nM
Cc1cc(N2CCC(c3ccc(N4CCNCC4)nc3C)CC2)c2cnn(C)c2n1 [Example 10, 1,6-dimethyl-4-[4-(2-methyl-6-piperazin-1-yl-3-pyridyl)-1-piperidyl]pyrazolo[3,4-b]pyridine] | 212 nM
Cc1cc(N2CCC(c3cc(C)c(N4CCNCC4)cn3)CC2)c2cnn(C)c2n1 [Example 9, 1,6-dimethyl-4-[4-(4-methyl-5-piperazin-1-yl-2-pyridyl)-1-piperidyl]pyrazolo[3,4-b]pyridine] | 120 nM
Cc1cc(N2CCC(c3cnc(N4CCNCC4)cn3)CC2)c2cnn(C)c2n1 [Example 3, 1,6-dimethyl-4-[4-(5-piperazin-1-ylpyrazin-2-yl)-1-piperidyl]pyrazolo[3,4-b]pyridine] | 124 nM
Cc1cc(N2CCC(c3cnc(N4CCNCC4)nc3C)CC2)c2cnn(C)c2n1 [Example 11, 1,6-dimethyl-4-[4-(4-methyl-2-piperazin-1-yl-pyrimidin-5-yl)-1-piperidyl]pyrazolo[3,4-b]pyridine] | 104 nM
Cc1cc(N2CCNCC2)cnc1C1CCN(c2ccnc3c2cnn3C)CC1 [Example 5, 1-methyl-4-[4-(3-methyl-5-piperazin-1-yl-2-pyridyl)-1-piperidyl]pyrazolo[3,4-b]pyridine] | 364 nM
Cc1cc(N2CCNCC2)ncc1C1CCN(c2ccnc3c2cnn3C)CC1 [Example 6, 1-methyl-4-[4-(4-methyl-6-piperazin-1-yl-3-pyridyl)-1-piperidyl]pyrazolo[3,4-b]pyridine] | 208 nM
Cc1cc(N2CCC(c3ccc(N4CCNCC4)cn3)CC2)c2cnn(C)c2n1 [Example 2, 1,6-dimethyl-4-[4-(5-piperazin-1-yl-2-pyridyl)-1-piperidyl]pyrazolo[3,4-b]pyridine] | 142 nM
Cc1cc(N2CCC(c3ncc(N4CC[C@@H](N)[C@@H](F)C4)cc3C)CC2)c2cnn(C)c2n1 [Example 15, (3S,4R)-1-[6-[1-(1,6-dimethylpyrazolo[3,4-b]pyridin-4-yl)-4-piperidyl]-5-methyl-3-pyridyl]-3-fluoro-piperidin-4-amine] | 130 nM
COc1cc(N2CCNCC2)cnc1C1CCN(c2cc(C)nc3c2cnn3C)CC1 [Example 14, 4-[4-(3-methoxy-5-piperazin-1-yl-2-pyridyl)-1-piperidyl]-1,6-dimethyl-pyrazolo[3,4-b]pyridine] | 225 nM
COC[C@H]1CN(c2cnc(C3CCN(c4cc(C)nc5c4cnn5C)CC3)c(C)c2)CCN1 [Example 16, 4-[4-[5-[(3R)-3-(methoxymethyl)piperazin-1-yl]-3-methyl-2-pyridyl]-1-piperidyl]-1,6-dimethyl-pyrazolo[3,4-b]pyridine] | 143 nM
